This test has as its target human PD-L1 / Human PD-1 (Homo sapiens (Human), UniProt Q9NZQ7). The experiment in a line: Enzyme-Linked Immunosorbent Assay (ELISA), PD-1/PD-L1 binding. The following applies: plate-coated human PD-L1, biotinylated human PD-1. How it is done:
Biological Example: Enzyme-Linked Immunosorbent Assay—ELISA
96 Well plates were coated with […] of human PD-L1 (obtained from R&D) in PBS overnight at 4° C. The wells were then blocked with 2% BSA in PBS (W/V) with 0.05% TWEEN-20 for 1 hour at 37° C. The plates were washed 3 times with PBS/0.05% TWEEN-20 and the compounds were serial diluted (1:5) in dilution medium and added to the ELISA plates. Human PD-1 and biotin 0.3 μg/mL (ACRO Biosystems) were added and incubated for 1 hour at 37° C. then washed 3 times with PBS/0.05% TWEEN-20. A second block was performed with 2% BSA in PBS (W/V)/0.05% TWEEN-20 for 10 min at 37° C. and was washed 3 times with PBS/0.05% TWEEN-20. Streptavidin-HRP was added for 1 hour at 37° C. then washed 3 times with PBS/0.05% TWEEN-20. TMB substrate was added and reacted for 20 min at 37° C. A stop solution (2 N aqueous H2SO4) was added. The absorbance was read at 450 nm using a micro-plate spectrophotometer.
Background: In an ELISA, binding on a coated surface is turned into a signal by an enzyme label.
human PD-L1 / Human PD-1, sequence (Q9NZQ7 19-239): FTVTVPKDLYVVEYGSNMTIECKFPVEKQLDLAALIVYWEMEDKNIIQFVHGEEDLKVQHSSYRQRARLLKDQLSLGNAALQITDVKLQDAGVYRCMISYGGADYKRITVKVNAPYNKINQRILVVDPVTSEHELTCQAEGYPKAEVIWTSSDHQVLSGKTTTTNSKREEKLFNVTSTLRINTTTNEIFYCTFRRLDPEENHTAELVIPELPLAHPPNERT
For orientation: IC50 means the midpoint of a concentration-inhibition curve. Read a low IC50 as greater potency. `CCOc1cc(O[C@H]2CCc3c(-c4cccc(OCCCN5CC[C@@H](O)C5)c4C)cccc32)c(Cl)cc1CNC(C)(CO)C(=O)O` (stereo partly shown) gave an IC50 of less than 5 nM.

Regarding `Cc1c(OCCCN2CCC[C@@H](O)C2)cccc1-c1cccc2c1CC[C@@H]2Oc1cc(OCc2cncc(C#N)c2)c(CN[C@H](C(=O)O)[C@@H](C)O)cc1Cl`, the IC50 was less than 5 nM.

`Cc1c(OCCCN2CCC[C@H](O)C2)cccc1-c1cccc2c1CC[C@@H]2Oc1cc(OCc2cncc(C#N)c2)c(CN[C@H](C(=O)O)[C@@H](C)O)cc1Cl` showed an IC50 of less than 5 nM.

Compound `Cc1c(OCCCN2CCC(O)CC2)cccc1-c1cccc2c1CC[C@@H]2Oc1cc(OCc2cc(C#N)cc(C#N)c2)c(CN[C@@](C)(CO)C(=O)O)cc1Cl` displayed an IC50 of less than 5 nM.

With `N#Cc1cncc(COc2cc(O[C@H]3CCc4c(-c5cccc(OCCCN6CCC(F)CC6)c5Cl)cccc43)c(Cl)cc2CNC[C@@H]2CCC(=O)N2)c1`, the IC50 was less than 5 nM.

Compound `C[C@@H](O)[C@H](NCc1cc(Cl)c(O[C@H]2CCc3c(-c4cccc(OCCCN5CC(O)C5)c4Cl)cccc32)cc1OCc1cncc(C#N)c1)C(=O)NS(C)(=O)=O` came in with an IC50 of less than 5 nM.

The compound `N#Cc1cncc(COc2cc(O[C@H]3CCc4c(-c5cccc(OCCCN6CC(O)C6)c5Cl)cccc43)c(Cl)cc2CN2CC(O)C2)c1` gave a 50% inhibitory concentration (IC50) of less than 5 nM.

Compound `N#Cc1cncc(COc2cc(O[C@H]3CCc4c(-c5cccc(OCCCN6CC(O)C6)c5Cl)cccc43)c(Cl)cc2CN2CCC(O)CC2)c1` returned an IC50 of less than 5 nM.

`C[C@@H](O)[C@H](NCc1cc(Cl)c(O[C@H]2CCc3c(-c4cccc(OCCCN5CC(O)C5)c4Cl)cccc32)cc1OCc1cncc(C#N)c1)C(N)=O` registered an IC50 of less than 5 nM.

As to `Cc1c(OCCCN2CCC(F)CC2)cccc1-c1cccc2c1CC[C@@H]2Oc1cc(OCc2cncc(C#N)c2)c(CNC[C@@H]2CCC(=O)N2)cc1Cl`, the IC50 is less than 5 nM.

`N#Cc1cncc(COc2cc(O[C@H]3CCc4c(-c5cccc(OCCCN6CC(O)C6)c5Cl)cccc43)c(Cl)cc2CN2CC[C@@H](O)C2)c1` registered an IC50 of less than 5 nM.

Turning to `N#Cc1cncc(COc2cc(O[C@H]3CCc4c(-c5cccc(OCCCN6CC(O)C6)c5Cl)cccc43)c(Cl)cc2CNC[C@@H]2CCC(=O)N2)c1`, the IC50 was less than 5 nM.

Regarding `N#Cc1cncc(COc2cc(O[C@H]3CCc4c(-c5cccc(OCCCN6CC(O)C6)c5Cl)cccc43)c(Cl)cc2CN2CC3(CC(O)C3)C2)c1`, the IC50 is less than 5 nM.

In turn, `CC(C)(O)CNCc1cc(Cl)c(O[C@H]2CCc3c(-c4cccc(OCCCN5CC(O)C5)c4Cl)cccc32)cc1OCc1cncc(C#N)c1` registered a half-inhibitory concentration (IC50) of less than 5 nM.

Turning to `C[C@@H](O)[C@H](NCc1cc(Cl)c(O[C@H]2CCc3c(-c4cccc(OCCCN5CC(O)C5)c4Cl)cccc32)cc1OCc1cncc(C#N)c1)C(=O)O`, the IC50 was less than 5 nM.

Turning to `N#Cc1cncc(COc2cc(O[C@H]3CCc4c(-c5cccc(OCCCN6CC(O)C6)c5Cl)cccc43)c(Cl)cc2CNCC(=O)O)c1`, the IC50 is less than 5 nM.

With `CCCC(CO)(NCc1cc(Cl)c(O[C@H]2CCc3c(-c4cccc(OCCCN5CC(O)C5)c4Cl)cccc32)cc1OCc1cncc(C#N)c1)C(=O)O` (stereo partly shown), the IC50 was less than 5 nM.

Consider `COc1cc(O[C@H]2CCc3c(-c4cccc(OCCCN5CC(O)C5)c4Cl)cccc32)cc(OC)c1CN[C@@](C)(CO)C(=O)O`, for which the IC50 was 5 to 500 nM.

`C[C@@](CO)(NCc1cc(Cl)c(O[C@H]2CCc3c(-c4cccc(OCCCN5CC(O)C5)c4Cl)cccc32)cc1-c1cncc(C#N)c1)C(=O)O` registered an IC50 of less than 5 nM.

In the case of `Cc1c(OCCCN2CCC(F)CC2)cccc1-c1cccc2c1CC[C@@H]2Oc1cc(OCc2cncc(C#N)c2)c(CNC[C@H]2CCC(=O)N2)cc1Cl`, the IC50 is less than 5 nM.

In turn, `N#Cc1cncc(COc2cc(O[C@H]3CCc4c(-c5cccc(OCCCN6CCC(O)CC6)c5Cl)cccc43)c(Cl)cc2CNC[C@@H]2CCC(=O)N2)c1` came in with an IC50 of less than 5 nM.

Compound `N#Cc1cncc(COc2cc(O[C@H]3CCc4c(-c5cccc(OCCCN6CCC(O)CC6)c5Cl)cccc43)c(Cl)cc2CNC[C@H]2CCC(=O)N2)c1` gave an IC50 of less than 5 nM.

`N#Cc1cncc(COc2cc(O[C@H]3CCc4c(-c5cccc(OCCCN6CCC(F)CC6)c5Cl)cccc43)c(Cl)cc2CNC[C@H]2CCC(=O)N2)c1` yielded an IC50 of less than 5 nM.

Take `N#Cc1cncc(COc2cc(O[C@H]3CCc4c(-c5cccc(OCCCN6CCC(F)CC6)c5Cl)cccc43)c(Cl)cc2CN2CC[C@@H](O)C2)c1`: the IC50 was less than 5 nM.

For the compound `N#Cc1cncc(COc2cc(O[C@H]3CCc4c(-c5cccc(OCCCN6CCC(F)CC6)c5Cl)cccc43)c(Cl)cc2CN[C@H]2CCOC[C@@H]2O)c1`, the IC50 is less than 5 nM.

In the case of `N#Cc1cncc(COc2cc(O[C@H]3CCc4c(-c5cccc(OCCCN6CCC(F)CC6)c5Cl)cccc43)c(Cl)cc2CN2CC[C@@H](F)C2)c1`, the half-inhibitory concentration (IC50) was less than 5 nM.

On to `CC1(O)CN(Cc2cc(Cl)c(O[C@H]3CCc4c(-c5cccc(OCCCN6CCC(F)CC6)c5Cl)cccc43)cc2OCc2cncc(C#N)c2)C1`, for which the IC50 is less than 5 nM.

`CC1(O)CCN(Cc2cc(Cl)c(O[C@H]3CCc4c(-c5cccc(OCCCN6CCC(F)CC6)c5Cl)cccc43)cc2OCc2cncc(C#N)c2)CC1` gave an IC50 of less than 5 nM.

For the compound `N#Cc1cncc(COc2cc(O[C@H]3CCc4c(-c5cccc(OCCCN6CC7(CC(O)C7)C6)c5Cl)cccc43)c(Cl)cc2CN[C@@H]2CCCC[C@@H]2O)c1`, the IC50 was less than 5 nM.

Take `N#Cc1cncc(COc2cc(O[C@H]3CCc4c(-c5cccc(OCCCN6CC(F)(F)C6)c5Cl)cccc43)c(Cl)cc2CNC[C@@H]2CCC(=O)N2)c1`: the IC50 is 5 to 500 nM.

`Cc1c(OCCCN2CCC(F)CC2)cccc1-c1cccc2c1CC[C@@H]2Oc1cc(OCc2cc(C#N)cc(C#N)c2)c(CNC[C@H]2CCC(=O)N2)cc1Cl` showed a 50% inhibitory concentration (IC50) of 5 to 500 nM.

In the case of `N#Cc1cncc(COc2cc(O[C@H]3CCc4c(-c5cccc(OCCCN6CCCCC6)c5Cl)cccc43)c(Cl)cc2CNC[C@H]2CCC(=O)N2)c1`, the IC50 was less than 5 nM.

Consider `N#Cc1cncc(COc2cc(O[C@H]3CCc4c(-c5cccc(OCCCN6CCCCC6)c5Cl)cccc43)c(Cl)cc2CNC[C@@H]2CCC(=O)N2)c1`, for which the IC50 is less than 5 nM.

Take `N#Cc1cncc(COc2cc(O[C@H]3CCc4c(-c5cccc(OCCCN6CCCCC6)c5Cl)cccc43)c(Cl)cc2CN[C@@H]2CCCC[C@@H]2O)c1`: the IC50 was less than 5 nM.

With `C[C@@H](O)[C@H](NCc1cc(Cl)c(O[C@H]2CCc3c(-c4cccc(OCCCN5CCCCC5)c4Cl)cccc32)cc1OCc1cncc(C#N)c1)C(=O)NS(C)(=O)=O`, the IC50 is less than 5 nM.

In turn, `N#Cc1cncc(COc2cc(O[C@H]3CCc4c(-c5cccc(OCCCN6CC(F)(F)C6)c5Cl)cccc43)c(Cl)cc2CNC[C@H]2CCC(=O)N2)c1` registered an IC50 of 5 to 500 nM.

`N#Cc1cncc(COc2cc(O[C@H]3CCc4c(-c5cccc(OCCCN6CCC(F)CC6)c5Cl)cccc43)c(Cl)cc2CN[C@@H]2CCC[C@@H]2O)c1` yielded an IC50 of less than 5 nM.

`N#Cc1cncc(COc2cc(O[C@H]3CCc4c(-c5cccc(OCCCN6CCC(F)CC6)c5Cl)cccc43)c(Cl)cc2CN[C@@H]2CCC[C@H]2O)c1`: the IC50 is less than 5 nM.

`C[C@@](CO)(NCc1cc(Cl)c(O[C@H]2CCc3c(-c4cccc(OCCCN)c4Cl)cccc32)cc1OCc1cncc(C#N)c1)C(=O)O` had an IC50 of less than 5 nM.

In turn, `CC1(C)CC(O)CCN1CCCOc1cccc(-c2cccc3c2CC[C@@H]3Oc2cc(OCc3cncc(C#N)c3)c(CN[C@@H]3CCCC[C@@H]3O)cc2Cl)c1Cl` (stereo partly shown) had a 50% inhibitory concentration (IC50) of less than 5 nM.

`CC1(F)CCN(CCCOc2cccc(-c3cccc4c3CC[C@@H]4Oc3cc(OCc4cncc(C#N)c4)c(CN[C@@H]4CCCC[C@@H]4O)cc3Cl)c2Cl)CC1` registered an IC50 of less than 5 nM.

As to `C[C@@H](O)[C@H](NCc1cc(Cl)c(O[C@H]2CCc3c(-c4cccc(OCCCN5CCC(C)(F)CC5)c4Cl)cccc32)cc1OCc1cncc(C#N)c1)C(=O)NS(C)(=O)=O`, the IC50 was less than 5 nM.

`CCOc1cc(O[C@H]2CCc3c(-c4cccc(OCCCN5CCC(F)CC5)c4Cl)cccc32)c(Cl)cc1CN[C@@H]1CCOC[C@H]1O` came in with an IC50 of 5 to 500 nM.

Compound `CCOc1cc(O[C@H]2CCc3c(-c4cccc(OCCCN5CCC(F)CC5)c4Cl)cccc32)c(Cl)cc1CN[C@H](C(=O)NS(C)(=O)=O)[C@@H](C)O` came in with an IC50 of 5 to 500 nM.

Compound `CC(=O)OC1CCN(CCCOc2cccc(-c3cccc4c3CC[C@@H]4Oc3cc(OCc4cncc(C#N)c4)c(CN[C@@H]4CCCC[C@@H]4O)cc3Cl)c2Cl)CC1` yielded an IC50 of less than 5 nM.

Consider `N#Cc1cncc(COc2cc(O[C@H]3CCc4c(-c5cccc(OCCCN6CCC(F)CC6)c5Cl)cccc43)c(Cl)cc2CN[C@H]2CCC[C@H]2O)c1`, for which the IC50 is less than 5 nM.

For the compound `N#Cc1cncc(COc2cc(O[C@H]3CCc4c(-c5cccc(OCCCN6CCC(F)CC6)c5Cl)cccc43)c(Cl)cc2CN[C@H]2CCC[C@@H]2O)c1`, the IC50 is less than 5 nM.

The compound `N#Cc1cncc(COc2cc(O[C@H]3CCc4c(-c5cccc(OCCCN6CCC(F)CC6)c5Cl)cccc43)c(Cl)cc2CNCC2CNC(=O)C2)c1` (stereo partly shown) returned an IC50 of less than 5 nM.

The compound `Cc1c(OCCCN2CCC(F)CC2)cccc1-c1cccc2c1CC[C@@H]2Oc1cc(OCc2cc(C#N)cc(C#N)c2)c(CNC[C@@H]2CCC(=O)N2)cc1Cl` had an IC50 of less than 5 nM.

In the case of `CC1(F)CCN(Cc2cc(Cl)c(O[C@H]3CCc4c(-c5cccc(OCCCN6CCC(F)CC6)c5Cl)cccc43)cc2OCc2cncc(C#N)c2)CC1`, the IC50 was 5 to 500 nM.

Regarding `C[C@@](CO)(NCc1cc(Cl)c(O[C@H]2CCc3c(-c4cccc(OCCCN5CCC5)c4Cl)cccc32)cc1OCc1cncc(C#N)c1)C(=O)O`, the IC50 is less than 5 nM.

Turning to `N#Cc1cncc(-c2cc(O[C@H]3CCc4c(-c5cccc(OCCCN6CCC(F)CC6)c5Cl)cccc43)c(Cl)cc2CNC[C@H]2CCC(=O)N2)c1`, the IC50 was 500 to 20000 nM.
